pIC50: −log10 of the molar value.
Experiments:
[1] = test system: Presenilin, Nicastrin, APH1 and PEN2; assay: γ-secretase complex protein expression; type: cell-based
Description: The γ-secretase enzyme complex is made up of four proteins presenilin, nicastrin, APH-1 (anterior pharynx-defective 1), and PEN-2 (presenilin enhancer 2), all of which are essential for activity. Cleavage by the γ-secretase complex releases the Notch intracellular domain (NICD), which in turn translocates into the nucleus of the cells, interacts with the C promoter-binding factor-1 (CBF1) transcriptional cofactor and transactivates target genes, such as those in the hairy and enhancer of split (Hes) and Hes related with YRPW motif (Hey) family proteins. We determined whether the γ-secretase complex comprising of Presenilin, Nicastrin, APH1 and PEN2 is affected.

[2] = test system: 253JBV bladder cancer cells; assay: hexoseaminidase cell proliferation assay, 253JBV; type: cell-based
Experimental: (§1) Using hexoseaminidase assay, we determined the effect of the compounds on cell proliferation. […] The IC50 value at 48 hours is below 10 μM in all the cancer cell lines.

[3] = test system: PanC-1 pancreatic cancer cells; assay: hexoseaminidase cell proliferation assay, PanC-1; type: cell-based
Experimental: as §1
Using hexoseaminidase assay, we determined the effect of the compounds on cell proliferation. […] The MRL16 IC50 value at 48 hours is below 0.3 μM in Colon cancer cell lines. […] Overall, the analogs can be used as chemotherapeutic agents against colon and pancreatic cancer.

DCLK1+ HCT116 cells = assay: flow cytometric analysis of DCLK1+ cells; type: cell-based; conditions: flow cytometry
[4] = test system: HCT116 colon cancer cells; assay: hexoseaminidase cell proliferation assay, HCT116; type: cell-based
Description: Using hexoseaminidase assay, we determined the effect of the compounds on cell proliferation. […]
Using hexoseaminidase assay, we determined the effect of the compounds on cell proliferation. […] […] […] Overall, the analogs can be used as chemotherapeutic agents against colon and pancreatic cancer.

CAMKIV = CAMKIV (Homo sapiens, UniProt Q16566); assay: kinase activity against CAMKIV; type: biochemical
Notch-1, Jagged-1, Hes-1 = assay: Notch signaling-related proteins; type: cell-based; conditions: two colon cancer cells
Description: Notch signaling also plays a fundamental role in the differentiation and maintenance of stem cells. […] We next determined the effect of THB or THBCD on Notch signaling-related proteins in the two colon cancer cells.

cancer stem cells = assay: colonosphere formation; type: cell-based
Experimental: It was also determined the analogs inhibit colonosphere formation from cancer stem cells. […] The columns are 0, 10, 25, and 50 micromolar concentrations of the compounds labeled by rows.
The effect of the compounds on colonosphere formation was determined. […] Overall, the analogs have shown they can be used as chemotherapeutic agents against colon, pancreatic and bladder cancer.

Chain of CAMKIV (Q16566 whole entry, species assumed): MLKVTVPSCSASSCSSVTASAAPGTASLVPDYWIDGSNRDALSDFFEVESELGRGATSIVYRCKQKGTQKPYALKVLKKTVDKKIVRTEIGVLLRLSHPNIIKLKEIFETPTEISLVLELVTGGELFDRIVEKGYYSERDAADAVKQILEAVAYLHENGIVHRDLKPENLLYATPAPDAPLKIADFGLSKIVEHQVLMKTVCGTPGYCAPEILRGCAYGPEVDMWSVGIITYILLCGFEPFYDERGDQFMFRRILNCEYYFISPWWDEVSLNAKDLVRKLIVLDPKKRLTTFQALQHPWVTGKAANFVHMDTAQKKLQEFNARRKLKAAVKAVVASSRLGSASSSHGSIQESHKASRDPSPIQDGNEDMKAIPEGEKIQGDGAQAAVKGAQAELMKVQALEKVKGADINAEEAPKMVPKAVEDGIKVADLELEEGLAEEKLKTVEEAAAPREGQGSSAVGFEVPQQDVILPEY

- expression of Presenilin, Nicastrin, APH1 and PEN2 [1]: downregulation
- pIC50 ([2]; 48 h): 4.42
- pIC50 ([2]; 72 h): 4.82
- pIC50 ([3]; PanC-1, 24 h): < 4.30
- pIC50 ([3]; PanC-1, 48 h): 5.00
- pIC50 ([3]; PanC-1, 72 h): 5.10
- pIC50 ([4]; HCT116, 24 h): < 4.30
- pIC50 ([4]; HCT116, 48 h): 5.00
- pIC50 ([4]; HCT116, 72 h): 5.12
- pIC50 ([4]; HCT116, 72 h, listed as THB): 5.10
- fold less activity against CAMKIV than DCLK1 (CAMKIV): 100 fold
SMILES: O=C(N/N=C/c1ccc(O)c(O)c1O)c1cc2ccccc2cc1O [MRL THB]
- DCLK1+ cells (DCLK1+ HCT116 cells): significant decrease
- Hes-1 expression (Notch-1, Jagged-1, Hes-1): reduced expression
- Notch-1 and Jagged-1 (Notch-1, Jagged-1, Hes-1): downregulated
- colonosphere formation (cancer stem cells): significantly inhibited colonosphere formation
